Calls of active or inactive are those of the source. How the calls were made is not given here.
System: CCRIS mutagenicity, Ames/micronucleus/aberration tests
Assay: CCRIS mutagenicity studies

With `O=C([O-])c1cc(N=Nc2ccc(-c3ccc(N/N=c4/c(=O)cc/c(=N\Nc5cc(S(=O)(=O)[O-])ccc5[O-])c4=O)cc3)cc2)ccc1[O-].[Cu+2].[Na+].[Na+]` the mutagenic call (End Point: IN VITRO CHROMOSOMAL ABERRATIONS, Test System: CHINESE HAMSTER OVARY CELLS, Metabolic Activation: NONE) was “inactive; negative”, the mutagenic call (End Point: IN VITRO CHROMOSOMAL ABERRATIONS, Test System: CHINESE HAMSTER OVARY CELLS, Metabolic Activation: RAT, LIVER, S-9, AROCLOR 1254) was “inactive; negative” and the mutagenic call (Test System: AMES SALMONELLA TYPHIMURIUM, Strain/Indicator: TA98, Metabolic Activation: HAMSTER, LIVER, S-9, Method: PREINCUBATION (PRIVAL METHOD)) was “active; positive”. The mutagenic call (Test System: AMES SALMONELLA TYPHIMURIUM, Strain/Indicator: TA98, Metabolic Activation: NONE, Method: STANDARD PLATE) was “inactive; negative”, the mutagenic call (Test System: AMES SALMONELLA TYPHIMURIUM, Strain/Indicator: TA98, Metabolic Activation: RAT, LIVER, S-9, AROCLOR 1254, Method: STANDARD PLATE) was “inactive; negative” and the mutagenic call (Test System: AMES SALMONELLA TYPHIMURIUM, Strain/Indicator: TA100, Metabolic Activation: NONE, Method: STANDARD PLATE) was “inactive; negative”. The mutagenic call (Test System: AMES SALMONELLA TYPHIMURIUM, Strain/Indicator: TA100, Metabolic Activation: RAT, LIVER, S-9, AROCLOR 1254, Method: STANDARD PLATE) was “inactive; negative”, the mutagenic call (Test System: AMES SALMONELLA TYPHIMURIUM, Strain/Indicator: TA1535, Metabolic Activation: NONE, Method: STANDARD PLATE) was “inactive; negative” and the mutagenic call (Test System: AMES SALMONELLA TYPHIMURIUM, Strain/Indicator: TA1535, Metabolic Activation: RAT, LIVER, S-9, AROCLOR 1254, Method: STANDARD PLATE) was “inactive; negative”. The mutagenic call (Test System: AMES SALMONELLA TYPHIMURIUM, Strain/Indicator: TA1537, Metabolic Activation: NONE, Method: STANDARD PLATE) was “inactive; negative”, the mutagenic call (Test System: AMES SALMONELLA TYPHIMURIUM, Strain/Indicator: TA1537, Metabolic Activation: RAT, LIVER, S-9, AROCLOR 1254, Method: STANDARD PLATE) was “inactive; negative” and the mutagenic call (Test System: AMES SALMONELLA TYPHIMURIUM, Strain/Indicator: TA1538, Metabolic Activation: NONE, Method: STANDARD PLATE) was “inactive; negative”. The mutagenic call (Test System: AMES SALMONELLA TYPHIMURIUM, Strain/Indicator: TA1538, Metabolic Activation: RAT, LIVER, S-9, AROCLOR 1254, Method: STANDARD PLATE) was “inactive; negative”.

`COC(=O)c1ccc(C=O)cc1` was tested, and the mutagenic call (Test System: AMES SALMONELLA TYPHIMURIUM, Strain/Indicator: TA97, Metabolic Activation: HAMSTER, LIVER, S-9, AROCLOR 1254 (10 OR 30%), Method: PREINCUBATION) was “inactive; negative”, the mutagenic call (Test System: AMES SALMONELLA TYPHIMURIUM, Strain/Indicator: TA97, Metabolic Activation: NONE, Method: PREINCUBATION) was “inactive; negative” and the mutagenic call (Test System: AMES SALMONELLA TYPHIMURIUM, Strain/Indicator: TA97, Metabolic Activation: RAT, LIVER, S-9, AROCLOR 1254 (10 OR 30%), Method: PREINCUBATION) was “inactive; negative”. The mutagenic call (Test System: AMES SALMONELLA TYPHIMURIUM, Strain/Indicator: TA98, Metabolic Activation: HAMSTER, LIVER, S-9, AROCLOR 1254 (10 OR 30%), Method: PREINCUBATION) was “inactive; negative”, the mutagenic call (Test System: AMES SALMONELLA TYPHIMURIUM, Strain/Indicator: TA98, Metabolic Activation: NONE, Method: PREINCUBATION) was “inactive; negative” and the mutagenic call (Test System: AMES SALMONELLA TYPHIMURIUM, Strain/Indicator: TA98, Metabolic Activation: RAT, LIVER, S-9, AROCLOR 1254 (10 OR 30%), Method: PREINCUBATION) was “inactive; negative”. For the same compound, the mutagenic call (Test System: AMES SALMONELLA TYPHIMURIUM, Strain/Indicator: TA100, Metabolic Activation: HAMSTER, LIVER, S-9, AROCLOR 1254 (10 OR 30%), Method: PREINCUBATION) was “inactive; negative”, the mutagenic call (Test System: AMES SALMONELLA TYPHIMURIUM, Strain/Indicator: TA100, Metabolic Activation: NONE, Method: PREINCUBATION) was “inactive; negative” and the mutagenic call (Test System: AMES SALMONELLA TYPHIMURIUM, Strain/Indicator: TA100, Metabolic Activation: RAT, LIVER, S-9, AROCLOR 1254 (10 OR 30%), Method: PREINCUBATION) was “inactive; negative”. For the same compound, the mutagenic call (Test System: AMES SALMONELLA TYPHIMURIUM, Strain/Indicator: TA1535, Metabolic Activation: HAMSTER, LIVER, S-9, AROCLOR 1254 (10 OR 30%), Method: PREINCUBATION) was “inactive; negative”, the mutagenic call (Test System: AMES SALMONELLA TYPHIMURIUM, Strain/Indicator: TA1535, Metabolic Activation: NONE, Method: PREINCUBATION) was “inactive; negative” and the mutagenic call (Test System: AMES SALMONELLA TYPHIMURIUM, Strain/Indicator: TA1535, Metabolic Activation: RAT, LIVER, S-9, AROCLOR 1254 (10 OR 30%), Method: PREINCUBATION) was “inactive; negative”.

For `CCC(=C(CC)c1ccc(O)cc1)c1ccc(O)cc1`, the mutagenic call (End Point: IN VITRO MICRONUCLEUS, Test System: CHL/IU CELLS, Metabolic Activation: NONE) was “active; positive”.

For `O=C1C=Cc2ccc3c4c(ccc1c24)C(=O)c1ccccc1-3`, the mutagenic call (Test System: CHINESE HAMSTER V-79, Strain/Indicator: V-79/8-AZAGUANINE, Metabolic Activation: NONE, Method: STANDARD PLATE) was “active; positive”.

— PubChem BioAssay AID1259407 (Chemical Carcinogenesis Research Information System (CCRIS), 2018)
